In ChEMBL document CHEMBL5370537, “Aporphines: A privileged scaffold in CNS drug discovery” (Eur J Med Chem, 2023):

Columns and labels:
Acetylcholinesterase = Acetylcholinesterase (Electrophorus electricus, UniProt O42275); test: Inhibition of Electrophorus electricus AChE using ATCI as substrate pre-incubated for 10 mins followed by substrate addition measured after 5 mins by microplate reader analysis
Cholinesterase = Cholinesterase (Equus caballus, UniProt P81908); test: Inhibition of equine serum BuChE using BTCI as substrate pre-incubated for 10 mins followed by substrate addition measured after 5 mins by microplate reader analysis
[1] = molecular target: Acetylcholinesterase (Electrophorus electricus) (UniProt O42275); test: Potency index, ratio of (R)-Stephanine IC50 to test compound IC50 for inhibition of Electrophorus electricus AChE using ATCI as substrate pre-incubated for 10 mins followed by substrate addition measured after 5 mins by microplate reader analysis; conditions: time 15.0 min
[2] = molecular target: Acetylcholinesterase (Electrophorus electricus) (UniProt O42275); test: Potency index, ratio of (R)-Roemerine IC50 to test compound IC50 for inhibition of Electrophorus electricus AChE using ATCI as substrate pre-incubated for 10 mins followed by substrate addition measured after 5 mins by microplate reader analysis; conditions: time 15.0 min
[3] = molecular target: Acetylcholinesterase (Electrophorus electricus) (UniProt O42275); test: Potency index, ratio of (S)-Dicentrine IC50 to test compound IC50 for inhibition of Electrophorus electricus AChE using ATCI as substrate pre-incubated for 10 mins followed by substrate addition measured after 5 mins by microplate reader analysis; conditions: time 15.0 min
[4] = molecular target: T1, 5-hydroxytryptamine receptor 2C (Homo sapiens, UniProt P28335); test: Partial agonist activity at human 5-HT2C stably transfected in HEK293T cells measured after 18 to 24 hrs by FLIPR assay; assay type: functional, cell-based
T1 sequence (P28335 whole entry): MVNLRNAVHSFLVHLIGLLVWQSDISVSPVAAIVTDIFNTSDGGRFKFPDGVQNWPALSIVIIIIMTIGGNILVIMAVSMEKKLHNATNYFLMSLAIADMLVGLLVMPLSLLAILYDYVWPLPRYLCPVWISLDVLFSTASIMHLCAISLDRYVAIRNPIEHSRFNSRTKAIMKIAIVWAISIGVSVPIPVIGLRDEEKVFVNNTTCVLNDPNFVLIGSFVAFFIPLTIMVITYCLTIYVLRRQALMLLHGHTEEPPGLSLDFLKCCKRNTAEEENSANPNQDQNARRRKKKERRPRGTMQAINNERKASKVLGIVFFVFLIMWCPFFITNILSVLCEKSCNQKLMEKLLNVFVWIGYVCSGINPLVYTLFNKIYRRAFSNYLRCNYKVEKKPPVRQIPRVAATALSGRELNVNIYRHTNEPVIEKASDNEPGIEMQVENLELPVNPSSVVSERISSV

[5] = molecular target: T2, 5-hydroxytryptamine receptor 2C (Homo sapiens) (UniProt P28335); test: Partial agonist activity at human 5-HT2C stably transfected in HEK293T cells measured after 18 to 24 hrs by FLIPR assay relative to control; assay type: functional, cell-based; conditions: filed as partial agonist, time 18-24 hrs
T2 sequence (whole entry): T1 sequence (P28335 whole entry)

D(1A) dopamine receptor = D(1A) dopamine receptor (Homo sapiens, UniProt P21728); test: Antagonist activity at D1R (unknown origin) transfected in HEK293 cells by FLIPR assay
[6] = molecular target: T3, 5-hydroxytryptamine receptor 2A (Homo sapiens, UniProt P28223); test: Antagonist activity at 5-HT2A (unknown origin) transfected in HEK293 cells by FLIPR assay; assay type: functional, cell-based
BV-2 [7] = test: Inhibition of NO production in LPS-induced mouse BV-2 cells incubated for 24 hrs by Griess reagent based microplate reader analysis; assay type: functional, cell-based; conditions: BV-2, 24 h
BV-2 [8] = test: Potency index, ratio of minocycline IC50 to test compound IC50 for inhibition of NO production in LPS-induced mouse BV-2 cells incubated for 24 hrs by Griess reagent based microplate reader analysis; assay type: functional
D(2) dopamine receptor = D(2) dopamine receptor (Homo sapiens, UniProt P14416); test: Antagonist activity at D2R (unknown origin); assay type: functional
[9] = molecular target: T1, 5-hydroxytryptamine receptor 2C; test: Agonist activity at 5-HT2C (unknown origin); assay type: functional
[10] = molecular target: T2, 5-hydroxytryptamine receptor 2C (Homo sapiens); test: Agonist activity at 5-HT2C (unknown origin) relative to control; assay type: functional; conditions: filed as agonist
SH-SY5Y = test: Neuroprotective activity against human SH-SY5Y cells assessed as increase in BDNF level at 20 uM measured after 48 hrs relative to control; assay type: functional
[11] = molecular target: 5-hydroxytryptamine receptor 2B (Homo sapiens, UniProt P41595); test: Binding affinity to human 5-HT2B transfected in HEK293 cells assessed as antagonist dissociation constant measured after 1 hrs; assay type: cell-based; conditions: filed as antagonist
[12] = molecular target: T4, Alpha-1D adrenergic receptor (Homo sapiens) (UniProt P25100); test: Binding affinity to human alpha1D adrenergic receptors transfected in HEK293 cells assessed as antagonist dissociation constant measured after 1 hrs; assay type: cell-based; conditions: filed as antagonist
T4 sequence (whole entry): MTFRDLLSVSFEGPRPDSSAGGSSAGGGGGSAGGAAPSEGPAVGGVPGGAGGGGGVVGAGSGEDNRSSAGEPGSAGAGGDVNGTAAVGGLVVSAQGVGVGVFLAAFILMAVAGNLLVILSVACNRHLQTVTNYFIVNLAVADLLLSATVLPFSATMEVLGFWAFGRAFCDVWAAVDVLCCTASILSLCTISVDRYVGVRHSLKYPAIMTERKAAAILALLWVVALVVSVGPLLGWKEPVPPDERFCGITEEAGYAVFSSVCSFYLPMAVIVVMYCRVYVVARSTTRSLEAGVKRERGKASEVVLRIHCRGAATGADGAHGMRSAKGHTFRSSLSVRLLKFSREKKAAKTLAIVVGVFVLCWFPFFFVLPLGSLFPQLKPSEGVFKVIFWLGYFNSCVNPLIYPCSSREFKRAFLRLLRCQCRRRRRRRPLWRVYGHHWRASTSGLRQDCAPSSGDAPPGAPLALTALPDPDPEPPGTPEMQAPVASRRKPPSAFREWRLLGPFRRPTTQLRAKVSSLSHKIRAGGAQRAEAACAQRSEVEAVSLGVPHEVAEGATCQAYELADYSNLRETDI

[13] = molecular target: T2, 5-hydroxytryptamine receptor 2C (Homo sapiens); test: Binding affinity to human 5-HT2C transfected in HEK293 cells assessed as antagonist dissociation constant measured after 1 hrs; assay type: cell-based; conditions: filed as antagonist
[14] = molecular target: T5, Alpha-1A adrenergic receptor (Homo sapiens) (UniProt P35348); test: Binding affinity to human alpha1A adrenergic receptors transfected in HEK293 cells assessed as antagonist dissociation constant measured after 1 hrs; assay type: cell-based; conditions: filed as antagonist
T5 sequence (whole entry): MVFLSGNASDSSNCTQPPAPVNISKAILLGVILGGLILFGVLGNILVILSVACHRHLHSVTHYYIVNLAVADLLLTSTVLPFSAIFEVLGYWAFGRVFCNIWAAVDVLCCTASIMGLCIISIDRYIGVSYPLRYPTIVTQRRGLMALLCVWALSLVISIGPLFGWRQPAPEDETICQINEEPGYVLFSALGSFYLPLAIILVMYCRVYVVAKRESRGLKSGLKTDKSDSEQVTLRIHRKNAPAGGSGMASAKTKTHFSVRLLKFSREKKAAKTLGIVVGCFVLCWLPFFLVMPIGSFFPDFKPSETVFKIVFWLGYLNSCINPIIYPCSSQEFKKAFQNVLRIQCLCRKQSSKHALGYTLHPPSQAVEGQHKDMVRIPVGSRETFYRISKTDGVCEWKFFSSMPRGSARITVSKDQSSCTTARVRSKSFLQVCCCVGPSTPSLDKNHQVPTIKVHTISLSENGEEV

[15] = molecular target: T6, Alpha-1B adrenergic receptor (Homo sapiens) (UniProt P35368); test: Binding affinity to human alpha1B adrenergic receptors transfected in HEK293 cells assessed as antagonist dissociation constant measured after 1 hrs; assay type: cell-based; conditions: filed as antagonist
T6 sequence (whole entry): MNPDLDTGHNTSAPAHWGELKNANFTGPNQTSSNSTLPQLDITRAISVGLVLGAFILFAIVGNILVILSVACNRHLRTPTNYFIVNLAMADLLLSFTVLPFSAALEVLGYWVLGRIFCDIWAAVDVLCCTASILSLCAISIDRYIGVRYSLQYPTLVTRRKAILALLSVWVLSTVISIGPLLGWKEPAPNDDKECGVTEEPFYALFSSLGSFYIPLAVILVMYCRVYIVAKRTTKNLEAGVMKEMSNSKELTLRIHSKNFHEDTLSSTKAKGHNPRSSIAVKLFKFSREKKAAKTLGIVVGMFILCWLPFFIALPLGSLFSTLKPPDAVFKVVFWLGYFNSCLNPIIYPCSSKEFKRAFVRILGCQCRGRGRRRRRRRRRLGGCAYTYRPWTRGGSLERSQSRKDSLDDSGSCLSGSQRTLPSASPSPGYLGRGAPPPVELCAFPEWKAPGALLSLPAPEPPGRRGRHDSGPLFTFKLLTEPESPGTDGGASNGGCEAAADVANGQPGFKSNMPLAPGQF

[16] = molecular target: T3, 5-hydroxytryptamine receptor 2A; test: Binding affinity to human 5-HT2A transfected in HEK293 cells assessed as antagonist dissociation constant measured after 1 hrs; assay type: cell-based; conditions: filed as antagonist
[17] = molecular target: T2, 5-hydroxytryptamine receptor 2C (Homo sapiens); test: Agonist activity at recombinant human 5-HT2C stably expressed in human T-REx-293 cells measured after 60 mins by FLIPR assay relative to control; assay type: functional, cell-based; conditions: filed as agonist
[18] = molecular target: T1, 5-hydroxytryptamine receptor 2C; test: Agonist activity at recombinant human 5-HT2C stably expressed in human T-REx-293 cells measured after 60 mins by FLIPR assay; assay type: functional, cell-based

Chain of Acetylcholinesterase (O42275 whole entry): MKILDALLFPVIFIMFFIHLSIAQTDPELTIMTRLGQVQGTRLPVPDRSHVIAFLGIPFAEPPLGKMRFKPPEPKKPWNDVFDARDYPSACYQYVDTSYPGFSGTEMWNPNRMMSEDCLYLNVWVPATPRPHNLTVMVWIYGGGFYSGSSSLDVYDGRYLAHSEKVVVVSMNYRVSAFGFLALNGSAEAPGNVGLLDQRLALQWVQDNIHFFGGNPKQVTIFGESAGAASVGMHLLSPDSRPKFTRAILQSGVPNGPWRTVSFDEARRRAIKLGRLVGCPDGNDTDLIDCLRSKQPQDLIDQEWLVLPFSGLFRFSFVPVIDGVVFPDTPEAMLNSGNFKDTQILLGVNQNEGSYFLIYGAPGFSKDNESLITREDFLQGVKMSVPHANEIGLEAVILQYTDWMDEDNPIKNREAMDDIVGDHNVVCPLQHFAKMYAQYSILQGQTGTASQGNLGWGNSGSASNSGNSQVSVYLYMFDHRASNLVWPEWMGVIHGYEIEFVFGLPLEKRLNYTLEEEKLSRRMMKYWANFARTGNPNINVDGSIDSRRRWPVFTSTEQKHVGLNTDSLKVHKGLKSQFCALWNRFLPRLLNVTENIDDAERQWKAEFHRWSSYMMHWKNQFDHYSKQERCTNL
Chain of Cholinesterase (P81908 whole entry): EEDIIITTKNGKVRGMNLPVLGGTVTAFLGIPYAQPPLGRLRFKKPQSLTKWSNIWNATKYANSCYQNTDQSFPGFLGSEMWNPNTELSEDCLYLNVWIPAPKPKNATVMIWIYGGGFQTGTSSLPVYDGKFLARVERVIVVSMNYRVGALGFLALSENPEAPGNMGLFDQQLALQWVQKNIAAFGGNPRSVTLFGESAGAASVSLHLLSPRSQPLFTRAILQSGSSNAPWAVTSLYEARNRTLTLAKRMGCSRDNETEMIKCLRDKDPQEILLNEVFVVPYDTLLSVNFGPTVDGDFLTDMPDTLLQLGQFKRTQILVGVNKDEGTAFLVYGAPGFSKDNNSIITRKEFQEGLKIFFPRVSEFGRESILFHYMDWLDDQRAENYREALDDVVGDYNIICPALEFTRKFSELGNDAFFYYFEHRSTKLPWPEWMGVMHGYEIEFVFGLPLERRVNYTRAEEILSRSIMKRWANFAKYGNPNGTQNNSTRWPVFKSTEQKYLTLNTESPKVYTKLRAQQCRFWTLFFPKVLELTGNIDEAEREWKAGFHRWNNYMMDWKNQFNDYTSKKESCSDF
Chain of D(2) dopamine receptor (P14416 whole entry): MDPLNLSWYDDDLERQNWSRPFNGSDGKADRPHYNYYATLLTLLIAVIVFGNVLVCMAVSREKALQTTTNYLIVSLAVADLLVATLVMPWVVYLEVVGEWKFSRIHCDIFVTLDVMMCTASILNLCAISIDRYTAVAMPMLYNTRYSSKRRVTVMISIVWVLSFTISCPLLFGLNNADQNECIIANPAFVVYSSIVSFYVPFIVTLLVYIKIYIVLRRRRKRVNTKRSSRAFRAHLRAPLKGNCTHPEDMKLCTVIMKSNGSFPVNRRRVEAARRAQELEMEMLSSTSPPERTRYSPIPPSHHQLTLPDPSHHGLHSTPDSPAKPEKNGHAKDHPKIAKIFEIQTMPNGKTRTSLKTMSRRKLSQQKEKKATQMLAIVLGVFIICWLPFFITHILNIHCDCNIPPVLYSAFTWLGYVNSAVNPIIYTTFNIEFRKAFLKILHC
Chain of Acetylcholinesterase (Electrophorus electricus) (O42275 24-633 limits assumed): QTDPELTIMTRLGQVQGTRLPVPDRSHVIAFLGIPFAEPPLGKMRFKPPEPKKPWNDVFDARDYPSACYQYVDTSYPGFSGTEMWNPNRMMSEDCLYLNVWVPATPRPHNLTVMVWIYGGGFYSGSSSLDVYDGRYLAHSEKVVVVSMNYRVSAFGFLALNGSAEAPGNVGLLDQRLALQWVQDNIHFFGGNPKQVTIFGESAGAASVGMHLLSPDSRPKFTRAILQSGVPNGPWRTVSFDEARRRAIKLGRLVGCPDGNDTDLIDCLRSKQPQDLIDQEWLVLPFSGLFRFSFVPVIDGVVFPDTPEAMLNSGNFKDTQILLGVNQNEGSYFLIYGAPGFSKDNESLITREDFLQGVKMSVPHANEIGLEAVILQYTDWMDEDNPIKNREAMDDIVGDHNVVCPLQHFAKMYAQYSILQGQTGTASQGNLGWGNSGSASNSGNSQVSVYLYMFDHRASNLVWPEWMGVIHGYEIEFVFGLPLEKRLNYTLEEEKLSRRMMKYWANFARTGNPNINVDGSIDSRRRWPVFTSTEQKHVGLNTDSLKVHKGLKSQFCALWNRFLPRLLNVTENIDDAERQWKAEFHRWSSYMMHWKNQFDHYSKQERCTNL
T3 sequence (P28223 whole entry): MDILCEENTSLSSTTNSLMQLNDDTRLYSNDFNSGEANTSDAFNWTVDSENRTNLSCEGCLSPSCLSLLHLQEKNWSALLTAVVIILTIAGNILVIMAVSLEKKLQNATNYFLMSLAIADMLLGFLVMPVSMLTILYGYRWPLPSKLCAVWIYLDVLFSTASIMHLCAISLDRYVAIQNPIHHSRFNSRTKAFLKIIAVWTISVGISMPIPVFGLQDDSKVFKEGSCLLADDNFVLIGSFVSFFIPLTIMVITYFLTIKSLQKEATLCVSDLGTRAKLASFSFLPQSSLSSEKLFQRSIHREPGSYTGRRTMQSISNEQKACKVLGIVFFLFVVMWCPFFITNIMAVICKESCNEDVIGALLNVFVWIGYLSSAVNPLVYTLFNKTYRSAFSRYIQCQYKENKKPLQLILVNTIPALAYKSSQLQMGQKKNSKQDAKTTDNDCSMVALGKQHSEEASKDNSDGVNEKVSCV
Chain of D(1A) dopamine receptor (P21728 whole entry): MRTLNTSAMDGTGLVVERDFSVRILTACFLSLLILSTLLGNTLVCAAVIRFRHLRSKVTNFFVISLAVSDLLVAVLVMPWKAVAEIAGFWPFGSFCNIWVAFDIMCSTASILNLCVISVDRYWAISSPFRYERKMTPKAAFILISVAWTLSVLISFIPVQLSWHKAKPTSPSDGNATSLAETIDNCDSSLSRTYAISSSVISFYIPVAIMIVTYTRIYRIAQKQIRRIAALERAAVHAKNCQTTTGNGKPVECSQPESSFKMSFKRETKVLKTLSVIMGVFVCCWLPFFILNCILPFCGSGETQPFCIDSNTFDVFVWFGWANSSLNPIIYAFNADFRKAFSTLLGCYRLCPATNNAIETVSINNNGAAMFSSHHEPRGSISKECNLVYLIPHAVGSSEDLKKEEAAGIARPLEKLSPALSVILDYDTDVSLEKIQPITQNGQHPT
Chain of 5-hydroxytryptamine receptor 2B (P41595 whole entry): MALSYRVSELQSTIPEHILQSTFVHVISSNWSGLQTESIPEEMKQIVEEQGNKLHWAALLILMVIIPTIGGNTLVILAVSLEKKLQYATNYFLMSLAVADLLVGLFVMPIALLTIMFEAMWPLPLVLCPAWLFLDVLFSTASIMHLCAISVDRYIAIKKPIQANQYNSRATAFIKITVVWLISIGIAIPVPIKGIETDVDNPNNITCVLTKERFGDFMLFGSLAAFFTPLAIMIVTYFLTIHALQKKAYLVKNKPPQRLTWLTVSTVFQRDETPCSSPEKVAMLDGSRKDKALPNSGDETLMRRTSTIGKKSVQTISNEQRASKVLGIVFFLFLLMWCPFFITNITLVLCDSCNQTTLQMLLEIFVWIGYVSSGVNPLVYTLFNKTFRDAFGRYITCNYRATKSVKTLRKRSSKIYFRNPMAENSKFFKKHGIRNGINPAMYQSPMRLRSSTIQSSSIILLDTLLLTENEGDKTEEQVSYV

## CN1CCc2cc3c(c4c2[C@H]1[C@H](O)c1ccccc1-4)OCO3
Acetylcholinesterase
  IC50: 17.6 µM
Cholinesterase
  IC50: 7.42 µM

## COc1cc2cc3c4c(cc5c(c4c2cc1OC)OCO5)CCN3C [DEHYDRODICENTRINE]
[1]
  Ratio IC50: 4
[2]
  Ratio IC50: 4
Acetylcholinesterase
  IC50: 1.09 µM
[3]
  Ratio IC50: 4
Cholinesterase
  IC50: 5.57 µM

## COc1cc2c3c(c1OC)-c1ccccc1CC3NCC2 (configuration not stated) [NORNUCIFERINE]
[4]
  EC50: 0.308 µM
[5]
  Emax: 65.6%
D(1A) dopamine receptor
  IC50: 38.5 µM

## COc1ccc2c(c1OC)[C@@H](O)[C@@H]1c3c(cc4c(c3-2)OCO4)CCN1C
Acetylcholinesterase
  IC50: 4.3 µM
Cholinesterase
  IC50: 22.5 µM

## COc1c(O)cc2c3c1-c1ccccc1CC3N(C)CC2 (configuration not stated)
[6]
  IC50: 19.6 µM

## CN1CCc2cc3c(c4c2c1cc1ccccc14)OCO3 [DEHYDROROEMERINE]
Acetylcholinesterase
  IC50: 1.21 µM
BV-2 [7]
  IC50: 1.3 µM
Cholinesterase
  IC50: 3.34 µM

## COc1c2c3c(c4c1OCO4)-c1ccccc1C[C@H]3N(C)CC2
Acetylcholinesterase
  IC50: 39.8 µM
Cholinesterase
  IC50: 104 µM

## COc1ccc2c(c1)C[C@@H]1c3c(cc4c(c3-2)OCO4)CCN1C
Acetylcholinesterase
  IC50: 11.9 µM
Cholinesterase
  IC50: 16.6 µM

## COc1cccc2c1C[C@@H]1c3c(cc4c(c3-2)OCO4)CCN1C [STEPHANINE]
BV-2 [8]
  Ratio IC50: ~4
Acetylcholinesterase
  IC50: 11.3 µM
BV-2 [7]
  IC50: 20.3 µM
Cholinesterase
  IC50: 2.8 µM
D(2) dopamine receptor
  IC50: 0.85 µM

## Oc1cc2c3c(c1Cl)-c1ccccc1C[C@H]3NCC2
[9]
  EC50: 0.304 µM
[10]
  Emax: 41.6%

## CN1CCc2cc3c(c4c2[C@H]1Cc1ccccc1-4)OCO3
SH-SY5Y
  Activity: 73%
Acetylcholinesterase
  IC50: 8.32 µM
Cholinesterase
  IC50: 2.8 µM
D(2) dopamine receptor
  IC50: 18.8 µM

## COc1cc2c3c(c1OC)-c1cc(O)ccc1C[C@H]3NCC2
D(2) dopamine receptor
  IC50: 5.2 µM

## COc1cc2c(cc1OC)-c1c3c(cc4c1[C@H](C2)N(C)CC4)OCO3 [DICENTRINE]
[11]
  Kb: 0.208 µM
[12]
  Kb: 0.181 µM
[13]
  Kb: 0.776 µM
[14]
  Kb: 0.163 µM
Acetylcholinesterase
  IC50: 6.11 µM
[15]
  Kb: 0.155 µM
[16]
  Kb: 0.0839 µM
Cholinesterase
  IC50: 26.4 µM

## COc1ccc2c3c1-c1ccccc1CC3NCC2 (configuration not stated)
[17]
  Emax: 96%
[18]
  EC50: 0.103 µM
